{
  "source": "patent US20080161324A1",
  "about": "“Compositions and methods for treatment of viral diseases” (priority 2006, published 2008)",
  "key": {"[1]": {"test_system": "Huh7 cells expressing a subgenomic RNA replicon of Con1 (genotype 1b) sequence origin", "test": "microbe, parasite or virus in culture", "type": "cell-based, HCV"}, "[2]": {"test_system": "HER1-2", "settings": "selective HER1 inhibitor (vs. HER1-2); cited from earlier work"}, "[3]": {"settings": "in words; cited from earlier work"}, "[4]": {"settings": "Hepatitis C virus, Huh-7, 48 h; read-out: IC50"}, "[5]": {"settings": "Table 1; inhibition of luciferase activity, 48 hours"}, "[6]": {"settings": "Table 1; inhibition of luciferase activity, 48 hours; read-out: IC50"}, "[7]": {"settings": "Hepatitis C virus, Huh-7, 48 h; read-out: IC25 (values noted with an asterisk)"}},
  "note": "Where a name gives a salt, the structure may show the parent alone. Read-outs that look alike come from different tables or passages of the source. Marks after values point to notes of the source that are not given here.",
  "data": [
    {"molecule": "CC(=O)Nc1ccccc1OCCCCCOCC(=O)Nc1ccccc1", "note": "[2′,2″-(Pentamethylenedioxy)diacetanilide]", "values": [
      {"measurement": "IC50", "setting": "[1]; [4]", "result": 3.14, "unit": "µM"}
    ]},
    {"molecule": "CC(=O)Nc1cccc(OCCCCCOc2cccc(NC(C)=O)c2)c1", "note": "[3′,3″-(Pentamethylenedioxy)diacetanilide]", "values": [
      {"measurement": "IC25 (values noted with an asterisk)", "setting": "[1]; [5]", "result": "9.35*"}
    ]},
    {"molecule": "N#C/C(=C\\c1ccc(O)c(O)c1)C(=O)NCc1ccccc1", "note": "[AG-490]", "values": [
      {"measurement": "IC50", "setting": "[1]; [6]", "result": 5.03, "unit": "µM"}
    ]},
    {"molecule": "N#C/C(=C\\c1ccc(O)c(O)c1)C(=O)Nc1ccccc1", "note": "[AG-494]", "values": [
      {"measurement": "IC50", "setting": "[2]", "result": 45, "unit": "µM"}
    ]},
    {"molecule": "Nc1ncnc2c1ncn2CCOCP(=O)(O)O", "note": "[Adefovir (e.g., dipivoxil), Adefovir]", "values": [
      {"measurement": "IC50", "setting": "[1]; Table 3; inhibition of luciferase activity, 48 hours; read-out: IC50", "result": 0.319, "unit": "µM"}
    ]},
    {"molecule": "Cc1ccc(/N=C/N(C)/C=N/c2ccc(C)cc2C)c(C)c1", "note": "[Amitraz]", "values": [
      {"measurement": "IC25", "setting": "[1]; [7]", "result": 26.4, "unit": "µM"}
    ]},
    {"molecule": "CC(=O)OC[C@H]1O[C@@H]([S-])[C@H](OC(C)=O)[C@@H](OC(C)=O)[C@@H]1OC(C)=O.CCP(CC)CC.[Au+]", "note": "[Auranofin]", "values": [
      {"measurement": "solubility", "setting": "[3]", "result": "insoluble in water"}
    ]},
    {"molecule": "CC(C)NCC(O)COc1ccc(CCOCC2CC2)cc1", "note": "(stereo not drawn) [Betaxolol (e.g., hydrochloride), Betaxolol]", "values": [
      {"measurement": "IC25", "setting": "[1]; Hepatitis C virus, Huh-7, 48 h, read-out: IC25 (values noted with an asterisk)", "result": 29.4, "unit": "µM"}
    ]},
    {"molecule": "CCCC(=O)O[C@H]1CN2CC[C@H](O)[C@@H]2[C@@H](O)[C@@H]1O", "note": "[Celgosivir]", "values": [
      {"measurement": "IC25", "setting": "[1]; [7]", "result": 6.25, "unit": "µM"}
    ]},
    {"molecule": "O=C1[C@H](CC[C@H](O)c2ccc(F)cc2)[C@@H](c2ccc(O)cc2)N1c1ccc(F)cc1", "note": "[Ezetimibe]", "values": [
      {"measurement": "IC50", "setting": "[1]; [4]", "result": 4.2, "unit": "µM"}
    ]},
    {"molecule": "Clc1ccc(C(c2ccccc2Cl)C(Cl)Cl)cc1", "note": "(stereo not drawn) [Mitotane]", "values": [
      {"measurement": "IC25", "setting": "[1]; [7]", "result": 28.1, "unit": "µM"}
    ]},
    {"molecule": "COc1ccc(C(=O)NCc2cccnc2)cc1C(=O)NCc1cccnc1", "note": "[Picotamide]", "values": [
      {"measurement": "IC25", "setting": "[1]; [7]", "result": 28.7, "unit": "µM"}
    ]},
    {"molecule": "CCCCOc1ccc(OCCCN2CCOCC2)cc1", "note": "[Pramoxine (e.g., hydrochloride), Pramoxine]", "values": [
      {"measurement": "IC25", "setting": "[1]; [7]", "result": 5.17, "unit": "µM"}
    ]},
    {"molecule": "COc1ccc(CCN(C)CCCC(C#N)(c2ccc(OC)c(OC)c2)C(C)C)cc1OC", "note": "(stereo not drawn) [R(+)-Verapamil (e.g., hydrochloride), R(+)-Verapamil]", "values": [
      {"measurement": "IC50", "setting": "[1]; Hepatitis C virus, Huh-7, 48 h", "result": 15.7, "unit": "µM"}
    ]},
    {"molecule": "CC(C)=CC[C@@H](O)C1=CC(=O)c2c(O)ccc(O)c2C1=O", "note": "[Shikonin]", "values": [
      {"measurement": "IC25", "setting": "[1]; [7]", "result": 26.4, "unit": "µM"}
    ]},
    {"molecule": "CO[C@H]1C[C@@H]2CC[C@@H](C)[C@@](O)(O2)C(=O)C(=O)N2CCCC[C@H]2C(=O)O[C@H]([C@H](C)C[C@@H]2CC[C@@H](O)[C@H](OC)C2)CC(=O)[C@H](C)/C=C(\\C)[C@@H](O)[C@@H](OC)C(=O)[C@H](C)C[C@H](C)/C=C/C=C/C=C/1C", "note": "[Sirolimus]", "values": [
      {"measurement": "IC25", "setting": "[1]; [7]", "result": 0.005, "unit": "µM"}
    ]},
    {"molecule": "N#C/C(=C\\c1ccc(O)c(O)c1)C(N)=S", "note": "[Tyrphostin 47]", "values": [
      {"measurement": "IC25 (values noted with an asterisk)", "setting": "[1]; [5]", "result": "18.3*"}
    ]},
    {"molecule": "O=C1CC(=O)c2c(Cl)c(Cl)c(Cl)c(Cl)c21", "note": "[UCH-L3 inhibitor]", "values": [
      {"measurement": "IC25 (values noted with an asterisk)", "setting": "[1]; Table 1; inhibition of luciferase activity, 48 hours; in µM", "result": "19.7*"}
    ]},
    {"molecule": "Beta Escin", "values": [
      {"measurement": "IC50", "setting": "[1]; [6]", "result": 4.27, "unit": "µM"}
    ]},
    {"molecule": "Chlorophyllin", "values": [
      {"measurement": "IC50", "setting": "[1]; [6]", "result": 1.3, "unit": "µM"}
    ]},
    {"molecule": "Gramicidin", "values": [
      {"measurement": "IC50", "setting": "[1]; [6]", "result": 0.017, "unit": "µM"}
    ]},
    {"molecule": "Manganese gluconate", "values": [
      {"measurement": "IC50", "setting": "[1]; read-out: IC50", "result": 24.7, "unit": "µM"}
    ]},
    {"molecule": "Tunicamycin", "values": [
      {"measurement": "IC50", "setting": "[1]; Table 2; inhibition of luciferase activity, 48 hours; read-out: IC50", "result": 0.107, "unit": "µM"}
    ]},
    {"molecule": "Vitamin B12", "values": [
      {"measurement": "IC50", "setting": "[1]; [6]", "result": 8.28, "unit": "µM"}
    ]}
  ]
}
